Measured values as given in patent US12083115B2, “Methods for treating neurological symptoms associated with lysosomal storage diseases” (Genzyme Corporation, priority 2020, dated 2024).

Tests used:
Assay type in all cases: in vivo, human
[1] = tested on: adult patients with Gaucher disease Type 3; test: Clinical study in GD-3 patients: trail making test (TMT), Trail B minus Trail A time; settings: for TMT-A (s)-TMT-B (s), Average: screening 126 (n = 6)
Experimental: (§1) During the study patients were evaluated for safety and tolerability, CSF and plasma biomarkers (glucosylceramide, GL-1; glucosylsphingosine, lyso-GL1), pharmacokinetics, markers for systemic disease (spleen and liver volume measured by magnetic resonance imaging (MRI), platelet count, hemoglobin levels), indicia of interstitial lung disease (high resolution pulmonary computed tomography (CT)), and horizontal saccadic eye movement. In addition, exploratory biomarkers were quantified in CSF of GD3 patients: ceramide (the precursor of GL-1), chitotriosidase (CHITO), GM3, and GPNMB. Symptoms of ataxia were measured using the SARA scale, neurological symptoms were measured using the trail making test, and functional MRI was used to assess neural connectivity in the brain.
The trail making test (TMT) was used to evaluate cognitive function in the patients. The TMT is one of the most widely used neuropsychological tests and is included in most test batteries. The TMT is a diagnostic tool to assess general intelligence and cognitive dysfunctions (Tombaugh et al. [2004]; Cavaco et al. [2013]). In part A of the TMT (TMT-A), subjects are asked to connect a cluster of numbers in ascending order (Trail A). This task is a combination of visual search and general visual and motor processing speed. Part B (TMT-B) presents a sequence which alternates between numbers and letters (Trail B). Subjects must actively switch between both categories when connecting them in ascending, but alternating order.
TMT-A evaluates mainly perceptual and psychomotor speed. TMT-B assesses more specifically mental flexibility and shifting abilities. TMT-B minus TMT-A score is used to remove the variance attributable to the graphomotor and visual scanning components of TMT-A. This derived score reflects the unique task requirements of TMT-B.

[2] = tested on: adult patients with Gaucher disease Type 3; test: Clinical study in GD-3 patients: ataxia, SARA scale; design: key to SARA Cumulative Score, Average Score excluding Patient 4 / SARA Cumulative Score: SARA, eight ataxia attributes summed, 0-40 scale; key to mean improvement in SARA score: change in SARA score (0-40 scale)
Experimental: (§2) The endpoint assessments are related to safety, CSF biomarkers, pharmacokinetics/pharmacodynamics, systemic disease, and neuroimaging and neurological function (CNS/neurological manifestations).
as §1
The degree of ataxia at baseline and throughout the study was evaluated by the Scale for Assessment and Rating of Ataxia (SARA; Schmitz-Hubsch et al. [2006]), which assesses eight distinct attributes of cerebellar ataxia on a scale of 0-40. The eight attributes are gait, stance, sitting, speech disturbance, finger chase, nose-finger test, fast alternate hand movement, and heel-shin slide. SARA ataxia scoring results for all six patients is presented in the chart below: […]

[3] = Study 1 Part 2: PK with and without a high-fat meal; settings: 5 mg single dose
Excerpt: Study 1 was a 2-part single-center trial in healthy adult male volunteers.
After a 7-day washout period, participants were crossed over to the other condition.

[4] = Clinical study in GD-3 patients (LEAP): Compound 2 concentrations in plasma and CSF
Excerpt: as §2
Patients 18 years of age or older with a clinical diagnosis of GD3 and documented deficiency of acid beta-glucosidase activity having received treatment with ERT for at least 3 years and with imiglucerase (Cerezyme) at a stable monthly dose for at least 6 months prior to enrollment were included in the study. Patients must have reached the following GD therapeutic goals: hemoglobin level of ≥11.0 g/dL for females and ≥12.0 g/dL for males; platelet count 100 000/mm^3; spleen volume <10 multiples of normal (MN), or total splenectomy (provided the splenectomy occurred ≥3 years prior to randomization); liver volume <1.5 MN; and no bone crisis and free of symptomatic bone disease such as bone pain attributable to osteonecrosis and/or pathological fractures within the last year. Patients must have GD3 featuring oculomotor apraxia (supranuclear gaze palsy) characterized by a horizontal saccade abnormality.
as §1
It is believed that this is due to either compliance or dosing errors, and therefore, analysis is repeated without Patient 5's Week 26 and 52 data included.

[5] = plasma, Day 1, N = 11, 15 mg/day + imiglucerase

## CC(C)(NC(=O)O[C@@H]1CN2CCC1CC2)c1csc(-c2ccc(F)cc2)n1 [Compound 2, (S)-quinuclidin-3-yl 2-(2-(4-fluorophenyl)thiazol-4-yl)propan-2-ylcarbamate]
[1]; 52 weeks, 11 patients
  patients with positive correlation between reduction of CSF GL-1 and TMT time: 6 of 11
[1]; Patient 1, Week 26, screening 13, 15 mg/day + imiglucerase
  Trail B minus Trail A time: 21 s
[1]; Patient 1, Week 52, screening 13, 15 mg/day + imiglucerase
  Trail B minus Trail A time: 16 s
[1]; Patient 1, 15 mg/day + imiglucerase
  TMT-A (s)-TMT-B (s), Change (%) from Baseline to Week 52: +23%
[1]; Patient 2, Week 26, screening 71, 15 mg/day + imiglucerase
  Trail B minus Trail A time: 37 s
[1]; Patient 2, Week 52, screening 71, 15 mg/day + imiglucerase
  Trail B minus Trail A time: 57 s
[1]; Patient 2, 15 mg/day + imiglucerase
  TMT-A (s)-TMT-B (s), Change (%) from Baseline to Week 52: −20%
[1]; Patient 3, Week 26, screening 72, 15 mg/day + imiglucerase
  Trail B minus Trail A time: 56 s
[1]; Patient 3, Week 52, screening 72, 15 mg/day + imiglucerase
  Trail B minus Trail A time: 20 s
[1]; Patient 3, 15 mg/day + imiglucerase
  TMT-A (s)-TMT-B (s), Change (%) from Baseline to Week 52: −72%
[1]; Patient 4, Week 52, screening 116, 15 mg/day + imiglucerase
  Trail B minus Trail A time: 66 s
[1]; Patient 4, 15 mg/day + imiglucerase
  TMT-A (s)-TMT-B (s), Change (%) from Baseline to Week 52: −43%
[1]; Patient 5 (low Compound 2 exposure)
  TMT-A (s)-TMT-B (s), Change (%) from Baseline to Week 52: −3%
[1]; Patient 5 (low Compound 2 exposure), Week 26, screening 74
  Trail B minus Trail A time: 60 s
[1]; Patient 5 (low Compound 2 exposure), Week 52, screening 74
  Trail B minus Trail A time: 72 s
[1]; Patient 6, Week 26, screening 410, 15 mg/day + imiglucerase
  Trail B minus Trail A time: 440 s
[1]; Patient 6, Week 52, screening 410, 15 mg/day + imiglucerase
  Trail B minus Trail A time: 166 s
[1]; Patient 6, 15 mg/day + imiglucerase
  TMT-A (s)-TMT-B (s), Change (%) from Baseline to Week 52: −60%
[1]; Patient 7, Week 26, screening 86, 15 mg/day + imiglucerase
  Trail B minus Trail A time: 83 s
[1]; Patient 7, Week 52, screening 86, 15 mg/day + imiglucerase
  Trail B minus Trail A time: 110 s
[1]; Patient 7, 15 mg/day + imiglucerase
  TMT-A (s)-TMT-B (s), Change (%) from Baseline to Week 52: +28%
[1]; Patient 8, Week 26, screening 100, 15 mg/day + imiglucerase
  Trail B minus Trail A time: 54 s
[1]; Patient 8, Week 52, screening 100, 15 mg/day + imiglucerase
  Trail B minus Trail A time: 59 s
[1]; Patient 8, 15 mg/day + imiglucerase
  TMT-A (s)-TMT-B (s), Change (%) from Baseline to Week 52: −41%
[1]; Patient 9, Week 52, screening 59, 15 mg/day + imiglucerase
  Trail B minus Trail A time: 75 s
[1]; Patient 9, 15 mg/day + imiglucerase
  TMT-A (s)-TMT-B (s), Change (%) from Baseline to Week 52: +27%
[1]; Patient 10, Week 26, screening 73, 15 mg/day + imiglucerase
  Trail B minus Trail A time: 33 s
[1]; Patient 10, Week 52, screening 73, 15 mg/day + imiglucerase
  Trail B minus Trail A time: 6 s
[1]; Patient 10, 15 mg/day + imiglucerase
  TMT-A (s)-TMT-B (s), Change (%) from Baseline to Week 52: −92%
[1]; Patient 11, Week 26, screening 18, 15 mg/day + imiglucerase
  Trail B minus Trail A time: 48 s
[1]; Patient 11, Week 52, screening 18, 15 mg/day + imiglucerase
  Trail B minus Trail A time: 32 s
[1]; Patient 11, 15 mg/day + imiglucerase
  TMT-A (s)-TMT-B (s), Change (%) from Baseline to Week 52: +78%
[1]; Patients 1-6
  TMT-A (s)-TMT-B (s), Average Change (%) from Baseline to Week 52: −29%
[1]; Week 26, n = 5
  TMT-A (s)-TMT-B (s), Average: 123 (n = 5) s
[1]; Week 52, Excluding Patient 5
  patients exhibiting a TMT-A reduction: four of five
  patients exhibiting a TMT-B reduction: five of five
  patients exhibiting an improvement in Trail B minus Trial A: four of five
[1]; Week 52, Excluding Patient 5 (SD 37.6%)
  mean improvement in Trail B minus Trial A: −31.6%
[1]; Week 52, Excluding Patient 5 (SD 99.3 s)
  mean improvement in Trail B minus Trial A: -71.4 s
[1]; Week 52, N = 6
  patients exhibiting a reduction in the (TMT-B−TMT-A) time: 5 of 6
  patients with reduction in time taken to complete Trail A: Four of six
  patients with reduction in time taken to complete Trail B: six of six
[1]; Week 52, N = 6 (SD=55.2 s), baseline 67.8 s
  mean time taken to complete Trail A: 56.5 s
[1]; Week 52, N = 6 (SD=91.8 s), baseline 193.8 s
  mean time taken to complete Trail B: 122.7 s
[1]; Week 52, n = 6
  TMT-A (s)-TMT-B (s), Average: 66 (n = 6) s
[1]; one of the new patients, 52 weeks
  drop in the (TMT-B−TMT-A) time: 92%
[2]; Excluding Patient 4, by Week 26, further slightly improved by Week 52
  mean SARA Score: significantly decreased
[2]; Patient 1, Week 52, screening 3.0, 15 mg/day + imiglucerase
  SARA Cumulative Score: 0.0
[2]; Patient 4, Week 52, screening 3.0, 15 mg/day + imiglucerase
  SARA Cumulative Score: 4.5
[2]; Patient 5 (low Compound 2 exposure), Week 26, screening 0.5
  SARA Cumulative Score: 0.0
[2]; Patient 5 (low Compound 2 exposure), Week 52, screening 0.5
  SARA Cumulative Score: 0.0
[2]; Week 52, Excluding Patient 5 (SD=3.2)
  mean improvement in SARA score: −0.9
[2]; Week 52, screening 2.80
  SARA Cumulative Score, Average Score excluding Patient 4: 0.90
[3]; high-fat meal compared with fasting
  effect of a high-fat meal on Compound 2 exposure: no effect
[3]; male, human, plasma, oral, whether fed or fasting, read-out: Median tmax
  Tmax: 6 h
[4]; CSF, Day 1, N = 6, 15 mg/day + imiglucerase
  Concentration 2-4 hours post dose (mean ± SD): <LLOQ
[4]; CSF, Week 4, N = 6, 15 mg/day + imiglucerase
  Concentration 2-4 hours post dose (mean ± SD): 4.56 ± 1.20 ng/mL
[4]; CSF, Week 4, N = 10 (Patient 5 excluded), 15 mg/day + imiglucerase
  Concentration 2-4 hours post dose (mean ± SD): 6.63 ± 2.42 ng/mL
[4]; CSF, Week 4, Patient 5 Only
  Concentration 2-4 hours post dose: 3.05 ng/mL
[4]; CSF, Week 26, Excluding Patient 5, 15 mg/day + imiglucerase
  Concentration 2-4 hours post dose (mean): 6.13 ng/mL
[4]; CSF, Week 26, N = 6, 15 mg/day + imiglucerase
  Concentration 2-4 hours post dose (mean ± SD): 5.26 ± 2.49 ng/mL
[4]; CSF, Week 26, N = 8 (Patient 5 excluded), 15 mg/day + imiglucerase
  Concentration 2-4 hours post dose (mean ± SD): 6.77 ± 1.96 ng/mL
[4]; CSF, Week 26, Patient 5 Only
  Concentration 2-4 hours post dose: 1.77 ng/mL
[4]; CSF, Week 52, Excluding Patient 5, 15 mg/day + imiglucerase
  Concentration 2-4 hours post dose (mean): 5.32 ng/mL
[4]; CSF, Week 52, N = 6, 15 mg/day + imiglucerase
  Concentration 2-4 hours post dose (mean ± SD): 4.43 ± 3.23 ng/mL
[4]; CSF, Week 52, N = 10 (Patient 5 excluded), 15 mg/day + imiglucerase
  Concentration 2-4 hours post dose (mean ± SD): 6.14 ± 3.44 ng/mL
[4]; CSF, Week 52, Patient 5 Only
  Concentration 2-4 hours post dose: <LLOQ
[4]; GD3 patients, 15 mg/day + imiglucerase
  steady state concentration reached in plasma and CSF: ≤ 4 Week
[4]; Patient 1, 52-week measurement, rifampicin Week 39 to Week 51
  plasma and CSF concentrations under co-treatment with CYP3A4 inducer rifampicin: significant drop in plasma and CSF concentrations
[4]; Patient 5, Week 26 (compliance or dosing errors believed)
  lower concentrations of Compound 2 in plasma and CSF: about 50%
[4]; Patient 5, Week 52
  concentrations of Compound 2 in plasma and CSF: undetectable
[4]; Plasma, Week 4, N = 10 (Patient 5 excluded), 15 mg/day + imiglucerase
  Concentration 2-4 hours post dose (mean ± SD): 116 ± 48.1 ng/mL
[4]; Plasma, Week 4, Patient 5 Only
  Concentration 2-4 hours post dose: 102 ng/mL
[4]; Plasma, Week 26, N = 10 (Patient 5 excluded), 15 mg/day + imiglucerase
  Concentration 2-4 hours post dose (mean ± SD): 120 ± 40.1 ng/mL
[4]; Plasma, Week 26, Patient 5 Only
  Concentration 2-4 hours post dose: 53.3 ng/mL
[4]; Plasma, Week 52, N = 10 (Patient 5 excluded), 15 mg/day + imiglucerase
  Concentration 2-4 hours post dose (mean ± SD): 114 ± 65.8 ng/mL
[4]; Plasma, Week 52, Patient 5 Only
  Concentration 2-4 hours post dose: <LLOQ
[4]; from plasma and CSF concentrations, N = 6, 15 mg/day + imiglucerase
  crossing of the blood-brain barrier: effectively cross the blood-brain barrier in all patients
[4]; plasma, Day 1, N = 6, 15 mg/day + imiglucerase
  Concentration 2-4 hours post dose (mean ± SD): 39.7 ± 12.6 ng/mL
[4]; [5]
  AUC0-24 (mean ± SD): 851 ± 282 ng·h/mL
  Cmax (mean ± SD): 58.1 ± 26.4 ng/mL
[4]; plasma, Week 4, N = 6, 15 mg/day + imiglucerase
  Concentration 2-4 hours post dose (mean ± SD): 92.3 ± 36.4 ng/mL
[4]; plasma, Week 26, Excluding Patient 5, 15 mg/day + imiglucerase
  Concentration 2-4 hours post dose (mean): 112 ng/mL
[4]; plasma, Week 26, N = 6, 15 mg/day + imiglucerase
  Concentration 2-4 hours post dose (mean ± SD): 102.0 ± 49.5 ng/mL
[4]; plasma, Week 52, Excluding Patient 5, 15 mg/day + imiglucerase
  Concentration 2-4 hours post dose (mean): 84 ng/mL
[4]; plasma, Week 52, N = 6, 15 mg/day + imiglucerase
  Concentration 2-4 hours post dose (mean ± SD): 69.8 ± 58.3 ng/mL
